Laboratory results published in PubChem BioAssay AID334 (DTP/NCI, 2004).
“And” between values parts separate entries of the source, which are not always exact repeats. Equal entries are not always repeated. Toxic doses and inconclusive results are not listed.

System: CD2F1 mice, intracerebral P388 leukemia, median survival T/C%
Assay: NCI In Vivo Anticancer Drug Screen. Data for tumor model P388 Leukemia (intracerebral) in CD2F1 (CDF1) mice
Conditions: endpoint: median survival time, higher = longer survival
Protocol: The antitumor activity of compounds was measured in mice bearing transplantable tumors. Survival or tumor size were measured and the results are expressed as the measurement made in the treated group (T) divided by the measurement made in the vehicle treated control group (C). The tumor model used in this assay is P388 Leukemia (intracerebral) in CD2F1 (CDF1) mice

Which T/C (dose: 8.0 mg/kg/injection, schedule: Q01DX009 (ip), vehicle: Klucel (hydroxypropylcellulose) (HPC)) does the source give for `CCCCCC(=O)O[C@]1(C(C)=O)CC[C@H]2[C@@H]3CCC4=CC(=O)CC[C@]4(C)[C@H]3CC[C@@]21C` here?
The T/C was 118 % of control and 105 % of control.

What about the T/C (dose: 8.0 mg/kg/injection, schedule: Q01DX009 (ip), vehicle: saline with Tween-80) of the same molecule?
The T/C was 535 % of control.

What about the T/C (dose: 16.0 mg/kg/injection, schedule: Q01DX009 (ip), vehicle: Klucel (hydroxypropylcellulose) (HPC)) of the same molecule?
The T/C was 100 % of control and 111 % of control.

And the T/C (dose: 16.0 mg/kg/injection, schedule: Q01DX009 (ip), vehicle: saline with Tween-80)?
The T/C was 100 % of control.

What about the T/C (dose: 32.0 mg/kg/injection, schedule: Q01DX009 (ip), vehicle: Klucel (hydroxypropylcellulose) (HPC)) of the same molecule?
Its T/C is 118 % of control and 105 % of control.

And the T/C (dose: 32.0 mg/kg/injection, schedule: Q01DX009 (ip), vehicle: saline with Tween-80)?
Its T/C is 98 % of control.

And the T/C (dose: 64.0 mg/kg/injection, schedule: Q01DX009 (ip), vehicle: Klucel (hydroxypropylcellulose) (HPC))?
Its T/C is 102 % of control and 111 % of control.

What about the T/C (dose: 128.0 mg/kg/injection, schedule: Q01DX009 (ip), vehicle: Klucel (hydroxypropylcellulose) (HPC)) of the same molecule?
The T/C was 121 % of control and 100 % of control.

What about the T/C (dose: 128.0 mg/kg/injection, schedule: Q01DX009 (ip), vehicle: saline with Tween-80) of the same molecule?
The T/C was 107 % of control.

What about the T/C (dose: 256.0 mg/kg/injection, schedule: Q01DX009 (ip), vehicle: Klucel (hydroxypropylcellulose) (HPC)) of the same molecule?
Its T/C is 120 % of control and 110 % of control.

What about the T/C (dose: 256.0 mg/kg/injection, schedule: Q01DX009 (ip), vehicle: saline with Tween-80) of the same molecule?
Its T/C is 98 % of control.

What about the T/C (dose: 512.0 mg/kg/injection, schedule: Q01DX009 (ip), vehicle: Klucel (hydroxypropylcellulose) (HPC)) of the same molecule?
The T/C was 124 % of control and 105 % of control.

What about the T/C (dose: 512.0 mg/kg/injection, schedule: Q01DX009 (ip), vehicle: saline with Tween-80) of the same molecule?
The T/C was 279 % of control.

`O=P1(NCCCl)OCCCN1CCCl` (configuration not stated) was tested. Which T/C (dose: 538.0 mg/kg/injection, schedule: Q01DX001 (ip), vehicle: saline) did it give?
Its T/C is 153 % of control.

For `CC(=O)O[C@H]1C(=O)[C@@]2(C)[C@H]([C@H](OC(=O)c3ccccc3)[C@]3(O)C[C@H](OC(=O)[C@H](O)[C@@H](NC(=O)c4ccccc4)c4ccccc4)C(C)=C1C3(C)C)[C@]1(OC(C)=O)CO[C@@H]1C[C@@H]2O`, which T/C (dose: 2.5 mg/kg/injection, schedule: Q01DX009 (ip), vehicle: Klucel (hydroxypropylcellulose) (HPC)) is on record?
The T/C was 100 % of control.

And the T/C (dose: 5.0 mg/kg/injection, schedule: Q01DX009 (ip), vehicle: Klucel (hydroxypropylcellulose) (HPC))?
The T/C was 103 % of control.

What about the T/C (dose: 10.0 mg/kg/injection, schedule: Q01DX009 (ip), vehicle: Klucel (hydroxypropylcellulose) (HPC)) of the same molecule?
Its T/C is 96 % of control.

And the T/C (dose: 20.0 mg/kg/injection, schedule: Q01DX009 (ip), vehicle: Klucel (hydroxypropylcellulose) (HPC))?
Its T/C is 86 % of control.

For `NC(=O)c1csc(C2OC(CO)C(O)C2O)n1` (configuration not stated), which T/C (dose: 12.5 mg/kg/injection, schedule: Q01DX009 (ip), vehicle: saline) is on record?
Its T/C is 105 % of control.

And the T/C (dose: 25.0 mg/kg/injection, schedule: Q01DX009 (ip), vehicle: saline)?
Its T/C is 121 % of control.

And the T/C (dose: 50.0 mg/kg/injection, schedule: Q01DX009 (ip), vehicle: saline)?
Its T/C is 110 % of control.

And the T/C (dose: 100.0 mg/kg/injection, schedule: Q01DX009 (ip), vehicle: saline)?
The T/C was 119 % of control.

What about the T/C (dose: 200.0 mg/kg/injection, schedule: Q01DX009 (ip), vehicle: saline) of the same molecule?
The T/C was 121 % of control.

And the T/C (dose: 800.0 mg/kg/injection, schedule: Q01DX009 (ip), vehicle: saline)?
Its T/C is 93 % of control.

Which T/C (dose: 117.0 mg/kg/injection, schedule: Q04DX003 (ip), vehicle: saline) does the source give for `Cc1cc(OCc2nc(N)nc(N)c2-c2ccc(Cl)c(Cl)c2)ccc1NS(=O)(=O)c1cccc(S(=O)(=O)F)c1` here?
The T/C was 100 % of control.

What about the T/C (dose: 176.0 mg/kg/injection, schedule: Q04DX003 (ip), vehicle: saline) of the same molecule?
The T/C was 100 % of control.

What about the T/C (dose: 264.0 mg/kg/injection, schedule: Q04DX003 (ip), vehicle: saline) of the same molecule?
Its T/C is 111 % of control.

What about the T/C (dose: 400.0 mg/kg/injection, schedule: Q04DX003 (ip), vehicle: saline) of the same molecule?
The T/C was 111 % of control.

How did the T/C (dose: 12.0 mg/kg/injection, schedule: Q01DX005 (ip), vehicle: Klucel (hydroxypropylcellulose) (HPC)) turn out when `COc1ccc2c(c1)CCC(c1ccccc1)=C2c1ccc(OCCN2CCCC2)cc1` was run?
The T/C was 104 % of control and 110 % of control.

What about the T/C (dose: 24.0 mg/kg/injection, schedule: Q01DX005 (ip), vehicle: Klucel (hydroxypropylcellulose) (HPC)) of the same molecule?
The T/C was 97 % of control and 102 % of control.

And the T/C (dose: 48.0 mg/kg/injection, schedule: Q01DX005 (ip), vehicle: Klucel (hydroxypropylcellulose) (HPC))?
Its T/C is 104 % of control and 108 % of control.

And the T/C (dose: 96.0 mg/kg/injection, schedule: Q01DX005 (ip), vehicle: Klucel (hydroxypropylcellulose) (HPC))?
The T/C was 96 % of control.

With `CCCCCCC(=O)O[C@H]1CC[C@H]2[C@@H]3CCC4=CC(=O)CC[C@]4(C)[C@H]3CC[C@]12C` as the molecule, how does the T/C (dose: 8.0 mg/kg/injection, schedule: Q01DX009 (ip), vehicle: saline + alcohol) read?
The T/C was 122 % of control and 103 % of control.

And the T/C (dose: 16.0 mg/kg/injection, schedule: Q01DX009 (ip), vehicle: saline + alcohol)?
The T/C was 118 % of control and 105 % of control.

What about the T/C (dose: 32.0 mg/kg/injection, schedule: Q01DX009 (ip), vehicle: saline + alcohol) of the same molecule?
The T/C was 120 % of control and 102 % of control.

What about the T/C (dose: 64.0 mg/kg/injection, schedule: Q01DX009 (ip), vehicle: saline + alcohol) of the same molecule?
Its T/C is 114 % of control and 100 % of control.

And the T/C (dose: 128.0 mg/kg/injection, schedule: Q01DX009 (ip), vehicle: saline + alcohol)?
The T/C was 118 % of control and 112 % of control.
